What was measured:
Assay type in all cases: in vivo
[1] = test system: Solanum nigrum (SOLNI); experiment: Pre-emergence biological efficacy, glasshouse pot test; details: 312 h, evaluated after 13 days (100=total damage; 0=no damage), read-out: Percentage damage SOLNI; for pest or weed control at 1000 g/ha: pre-emergence, 1,000 g/ha
Summary of the method: (§1)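 Damage was rated on a 0–100 scale 13 days after treatment, with plants kept at 24/16° C, 14 h light and 65% humidity. The pre-emergence spray, at 1000 or 250 g/ha in acetone/water 50:50 with 0.5% Tween 20, was applied one day after sowing.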

[2] = test system: Alopecurus myosuroides (ALOMY); experiment: as above; details: 312 h, evaluated after 13 days (100=total damage; 0=no damage), read-out: Percentage damage ALOMY; for pest or weed control at 1000 g/ha: pre-emergence, 1,000 g/ha
Summary of the method: as §1

[3] = test system: Amaranthus retoflexus (AMARE); experiment: as above; details: Amaranthus retroflexus, 312 h, evaluated after 13 days (100=total damage; 0=no damage), read-out: Percentage damage AMARE; for pest or weed control at 1000 g/ha: pre-emergence, 1,000 g/ha
Summary of the method: as §1

[4] = test system: Echinochloa crus-galli (ECHCG); experiment: as above; details: 312 h, evaluated after 13 days (100=total damage; 0=no damage), read-out: Percentage damage ECHCG; for pest or weed control at 1000 g/ha: pre-emergence, 1,000 g/ha
Summary of the method: as §1

[5] = test system: Ipomea hederaceae (IPOHE); experiment: as above; details: Ipomoea hederacea, 312 h, evaluated after 13 days (100=total damage; 0=no damage), read-out: Percentage damage IPOHE; for pest or weed control at 1000 g/ha: pre-emergence, 1,000 g/ha
Summary of the method: as §1

[6] = test system: Setaria faberi (SETFA); experiment: as above; details: 312 h, evaluated after 13 days (100=total damage; 0=no damage), read-out: Percentage damage SETFA; for pest or weed control at 1000 g/ha: pre-emergence, 1,000 g/ha
Summary of the method: as §1

[7] = test system: Solanum nigrum (SOLNI); experiment: Post-emergence biological efficacy, glasshouse pot test; details: 312 h, evaluated after 13 days (100=total damage; 0=no damage), read-out: Percentage damage caused to weed species, SOLNI; for pest or weed control at 1000 g/ha: post-emergence, 1,000 g/ha
Summary of the method: (§2)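 Scored 13 days after spraying on a 0 (no damage) to 100 (total damage) scale. Treatment was a post-emergence spray at 1000 or 250 g/ha, from acetone/water 50:50 plus 0.5% Tween 20, onto 8-day-old plants in soil pots. Growth at 24/16° C, 14 h photoperiod, 65% humidity, watered twice daily.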

[8] = test system: Alopecurus myosuroides (ALOMY); experiment: as above; details: 312 h, evaluated after 13 days (100=total damage; 0=no damage), read-out: Percentage damage caused to weed species, ALOMY; for pest or weed control at 1000 g/ha: post-emergence, 1,000 g/ha
Summary of the method: as §2

[9] = test system: Amaranthus retoflexus (AMARE); experiment: as above; details: Amaranthus retroflexus, 312 h, evaluated after 13 days (100=total damage; 0=no damage), read-out: Percentage damage caused to weed species, AMARE; for pest or weed control at 1000 g/ha: post-emergence, 1,000 g/ha
Summary of the method: as §2

[10] = test system: Echinochloa crus-galli (ECHCG); experiment: as above; details: 312 h, evaluated after 13 days (100=total damage; 0=no damage), read-out: Percentage damage caused to weed species, ECHCG; for pest or weed control at 1000 g/ha: post-emergence, 1,000 g/ha
Summary of the method: as §2

[11] = test system: Ipomea hederaceae (IPOHE); experiment: as above; details: Ipomoea hederacea, 312 h, evaluated after 13 days (100=total damage; 0=no damage), read-out: Percentage damage caused to weed species, IPOHE; for pest or weed control at 1000 g/ha: post-emergence, 1,000 g/ha
Summary of the method: as §2

[12] = test system: Setaria faberi (SETFA); experiment: as above; details: 312 h, evaluated after 13 days (100=total damage; 0=no damage), read-out: Percentage damage caused to weed species, SETFA; for pest or weed control at 1000 g/ha: post-emergence, 1,000 g/ha
Summary of the method: as §2

Row | Compound | pest or weed control at 1000 g/ha [1] [%] | pest or weed control at 1000 g/ha [2] [%] | pest or weed control at 1000 g/ha [3] [%] | pest or weed control at 1000 g/ha [4] [%] | pest or weed control at 1000 g/ha [5] [%] | pest or weed control at 1000 g/ha [6] [%] | pest or weed control at 1000 g/ha [7] [%] | pest or weed control at 1000 g/ha [8] [%] | pest or weed control at 1000 g/ha [9] [%] | pest or weed control at 1000 g/ha [10] [%] | pest or weed control at 1000 g/ha [11] [%] | pest or weed control at 1000 g/ha [12] [%] | other results
1 | COC(=O)c1nc(C2CC2)nc(NCc2ccccc2Br)c1Cl [Compound 4-67, 4-(2-Bromophenyl-methylamino)-5-chloro-2-cyclopropyl-6-methoxycarbonyl-pyrimidine] | – | – | – | – | – | – | – | – | – | – | – | – | pest or weed control at 250 g/ha ([1]; pre-emergence, 250 g/ha): 20%; pest or weed control at 250 g/ha ([2]; pre-emergence, 250 g/ha): 0%; pest or weed control at 250 g/ha ([3]; pre-emergence, 250 g/ha): 40%; pest or weed control at 250 g/ha ([4]; pre-emergence, 250 g/ha): 0%; pest or weed control at 250 g/ha ([5]; pre-emergence, 250 g/ha): 0%; pest or weed control at 250 g/ha ([6]; pre-emergence, 250 g/ha): 0%; pest or weed control at 250 g/ha ([7]; post-emergence, 250 g/ha): 90%; pest or weed control at 250 g/ha ([8]; post-emergence, 250 g/ha): 20%; pest or weed control at 250 g/ha ([9]; post-emergence, 250 g/ha): 90%; pest or weed control at 250 g/ha ([10]; post-emergence, 250 g/ha): 50%; pest or weed control at 250 g/ha ([11]; post-emergence, 250 g/ha): 80%; pest or weed control at 250 g/ha ([12]; post-emergence, 250 g/ha): 70%
2 | COC(=O)c1nc(C2CC2)nc(NCc2cccc(Br)c2)c1Cl [Compound 4-68, 4-(3-Bromophenyl-methylamino)5-chloro-2-cyclopropyl-6-methoxycarbonyl-pyrimidine] | 20 | 10 | 50 | 10 | 60 | 10 | 90 | 20 | 100 | 60 | 100 | 90 | –
3 | COC(=O)c1nc(C2CC2)nc(NCc2cccc(I)c2)c1Cl [Compound 4-70, 5-Chloro-2-cyclopropyl-4-(3-iodophenylmethyl-amino)-6-methoxy-carbonylpyrimidine] | 30 | 10 | 40 | 30 | 60 | 20 | 100 | 20 | 100 | 70 | 100 | 90 | –
4 | COC(=O)c1nc(C2CC2)nc(NCc2ccccc2C)c1Cl [Compound 4-71, 5-Chloro-2-cyclopropyl-6-methoxycarbonyl-4-(2-methylphenyl-methylamino)-pyrimidine] | 20 | 20 | 90 | 20 | 70 | 20 | 90 | 20 | 100 | 60 | 100 | 80 | –
5 | COC(=O)c1nc(C2CC2)nc(NCc2cccc(C)c2)c1Cl [Compound 4-72, 5-Chloro-2-cyclopropyl-6-methoxycarbonyl-4-(3-methylphenyl-methylamino)-pyrimidine] | 40 | 10 | 60 | 40 | 40 | 10 | 100 | 10 | 100 | 50 | 100 | 30 | –
6 | COC(=O)c1nc(C2CC2)nc(NCc2ccc(C)cc2)c1Cl [Compound 4-73, 5-Chloro-2-cyclopropyl-6-methoxycarbonyl-4-(4-methylphenyl-methylamino)-pyrimidine] | 60 | 10 | 70 | 30 | 80 | 20 | 100 | 20 | 100 | 60 | 100 | 80 | –
7 | COC(=O)c1nc(C2CC2)nc(NCc2ccc(C(C)C)cc2)c1Cl [Compound 4-74, 5-Chloro-2-cyclopropyl-4-(4-isopropylphenyl-methlamino)-6-methoxycarbonyl-pyrimidine] | 70 | 10 | 80 | 30 | 60 | 10 | 100 | 20 | 90 | 70 | 100 | 80 | –
8 | COC(=O)c1nc(C2CC2)nc(NCc2ccccc2C(F)(F)F)c1Cl [Compound 4-75, 5-Chloro-2-cyclopropyl-6-methoxycarbonyl-4-(2-trifluoromethyl-phenylmethyl-amino)-pyrimidine] | 30 | 10 | 50 | 0 | 20 | 10 | 100 | 20 | 100 | 50 | 100 | 90 | –
9 | COC(=O)c1nc(C2CC2)nc(NCc2cccc(C(F)(F)F)c2)c1Cl [Compound 4-76, 5-Chloro-2-cyclopropyl-6-methoxycarbonyl-4-(3-trifluoromethyl-phenylmethyl-amino)pyrimidine] | 60 | 40 | 60 | 60 | 70 | 50 | 100 | 40 | 100 | 70 | 100 | 90 | –

— patent publication US20110086759A1, “CHEMICAL COMPOUNDS” (SYNGENTA CROP PROTECTION, INC., priority 2007, published 2011)
